Test results taken from patent US20100120084A1, “REACTION MEDIUM FOR IDENTIFYING/DETECTING MICROORGANISMS” (Biomerieux, priority 2007, published 2010).
Like-named read-outs stand apart in the source and are kept apart here.

Tests used:
[1] = format: physicochemical; settings: for native molecule (cloxacillin) found after heating: 31 h at 75° C.
Procedure: Cloxacillin (molecular mass 475.88) is an antibiotic of β-lactam type, used to inhibit the growth of certain bacterial species such as Enterobacter aerogenes or Escherichia coli. The cyclodextrins of the BioCydex library were incubated with cloxacillin in a 1:1 molar ratio (concentration=210.12 mM), at 20° C. for 72 h (shaking in the dark). The amount of residual cloxacillin was then analyzed by HPLC.
The following tests were carried out in an aqueous medium and at high temperature (75° C.) in order to accelerate the rate of degradation.
The complexes were prepared at ambient temperature with cloxacillin:cyclodextrin molar ratios of 1:16 and of 1:79. The solutions containing 0.63 mM, i.e. 300 mg·L^−1, of cloxacillin were incubated at 75° C. for 31 h. The analysis of the samples and the quantification thereof so as to evaluate the stability of the antibiotic were carried out on a Thermo Finnigan SpectraSYSTEM HPLC system equipped with a P1000XR pump, an AS3000 automatic injector, a UV1000 UV/visible detector, and a Merck Chromolith® Performance RP-18 endcapped column (100-4.6 mm) preceded by a Merck Chromolith® RP-18e guard column (5-4.6 mm).
(§1) The mobile phases were prepared using HPLC-grade acetonitrile and water acidified with trifluoroacetic acid (100 μL/L). A methanol/water gradient of 0/100 to 100/0 was applied in 12 min. After stabilization for 2 min, the column is reequilibrated under the initial conditions. The elution speed is 1 mL/min, the temperature is 22° C. and the detection is carried out at 220 nm. The sample injection volume is 20 μL. The chromatographic data were processed using the Atlas software, version 2003.1 (Thermo Electron Corporation, UK).

[2] = Stability of cefoxitin in the presence of cyclodextrins at 65° C. (HPLC); format: physicochemical
Procedure: 0.444 mM of cefoxitin (Sigma, Ref. C4786-5G) and 8.88 mM of cyclodextrin (ACD N0 or GCD NO or BCD R59 or BCD C15), i.e. in a molar ratio of 1:20, were dissolved with stirring for one hour at ambient temperature. The mixture was then brought to 65° C. for 90 min. The integrity of the cefoxitin was then analyzed by HPLC. The analysis of the samples and the quantification thereof were carried out on a Thermo Finnigan SpectraSYSTEM HPLC system equipped with a P1000XR pump, an AS3000 automatic injector, a UV1000 UV/visible detector, and a Merck Chromolith® Performance RP-18 endcapped column (100-4.6 mm) preceded by a Merck Chromolith® RP-18e guard column (5-4.6 mm).
as §1, with “254” for “220”
The optimization of protection was sought by varying the cefoxitin:cyclodextrin (BCD R59 and BCD C15) molar ratio from 1:1 to 1:216, the other conditions remaining unchanged. […] The improvement in stability was calculated relative to the control without cyclodextrin.

β-lactamase = β-lactamase resistance to heat degradation (residual amoxicillin by HPLC); settings: for [Amoxicillin] (arbitrary units): amoxicillin 500 mg·L^−1, 5 min at 25° C.
Procedure: β-Lactamase (Genzyme Biochemicals Ref. BELA-70-1431) in an amount equivalent to 0.375 U·mL^−1 was mixed with the cyclodextrin BCD A56 of the Protéosol® range (1 or 10 mM), at ambient temperature and in the dark, for 30 min. The mixture was then heated at 70° C. for 45 min. […] After incubation for 5 min at 25° C., the residual amoxicillin was analyzed by HPLC.
On the basis of the above profiles, it was possible to quantify the concentration of amoxicillin and to link this value to the β-lactamase activity.

[3] = cloxacillin complexed with cyclodextrin

Cc1onc(-c2ccccc2Cl)c1C(=O)N[C@@H]1C(=O)N2[C@@H]1SC(C)(C)[C@@H]2C(=O)O [cloxacillin, reference compound]
Cloxacillin stability (%) ([1]; 31 h, 0.63 mM): 0.6%
native molecule (cloxacillin) found after heating ([1]; cloxacillin not associated with cyclodextrin): 0%

CO[C@@]1(NC(=O)Cc2cccs2)C(=O)N2C(C(=O)O)=C(COC(N)=O)CS[C@@H]21 [cefoxitin, reference compound]
stability of cefoxitin ([2]; cefoxitin:cyclodextrin molar ratio 1:50, 90 min at 65° C.): 47.5%
Cefoxitin stability/% ([2]; no cyclodextrin, 0.444 mM cefoxitin, 65° C. for 90 min): 38.5%

randomly 2-O-methyl-cyclomaltoheptaose [BCD C15]
protection of cloxacillin against heat degradation, comparison of cyclodextrins [1]: best protection
native molecule (cloxacillin) found after heating [1, 3]: 40%
complexed antibiotic (cefoxitin) less degraded than the molecule alone [2]: approximately 10%
protection of cefoxitin, comparison of BCD R59 and BCD C15 ([2]; molar ratios between 1:6 and 1:30, FIG. 2): most effective

6^I-(3-aminopropylamino)-6^I-deoxycyclomaltoheptaose [BCD A56]
protection of the β-lactamase against heat (β-lactamase; BCD A56 at 10 mM, reference: absence of cyclodextrin): excellent protection
interaction with the active site of the enzyme (β-lactamase; β-lactamase + BCD A56): did not interact
[Amoxicillin] (arbitrary units) (β-lactamase; β-lactamase heated 70° C. 45 min + BCD A56 at 1 mM): 4.3 arbitrary units
[Amoxicillin] (arbitrary units) (β-lactamase; β-lactamase heated 70° C. 45 min + BCD A56 at 10 mM): 0.8 arbitrary units

randomly 2,3,6-O-(2-hydroxypropyl)cyclomaltoheptaose [BCD R59]
native molecule (cloxacillin) found after heating [1, 3]: 40%
